Laboratory results published in ChEMBL document CHEMBL1151999, “3-Lithioquinuclidin-2-ene: A novel intermediate for the synthesis of muscarinic agonists and antagonists” (Bioorg Med Chem Lett, 1994).

What was measured:
[1] = target: Muscarinic acetylcholine receptor; assay: In vitro binding affinity towards muscarinic receptor in urinary bladder was determined; format: protein assay, Cavia porcellus
[2] = target: Muscarinic acetylcholine receptor M3 (Homo sapiens, UniProt P20309); assay: In vitro binding affinity towards muscarinic receptor in parotid gland (M3); format: tissue-based
[3] = target: T1, Muscarinic acetylcholine receptor M1 (Homo sapiens, UniProt P11229); assay: In vitro binding affinity towards muscarinic receptor in cerebral cortex (M1) was determined; format: tissue-based
T1 sequence (P11229 whole entry): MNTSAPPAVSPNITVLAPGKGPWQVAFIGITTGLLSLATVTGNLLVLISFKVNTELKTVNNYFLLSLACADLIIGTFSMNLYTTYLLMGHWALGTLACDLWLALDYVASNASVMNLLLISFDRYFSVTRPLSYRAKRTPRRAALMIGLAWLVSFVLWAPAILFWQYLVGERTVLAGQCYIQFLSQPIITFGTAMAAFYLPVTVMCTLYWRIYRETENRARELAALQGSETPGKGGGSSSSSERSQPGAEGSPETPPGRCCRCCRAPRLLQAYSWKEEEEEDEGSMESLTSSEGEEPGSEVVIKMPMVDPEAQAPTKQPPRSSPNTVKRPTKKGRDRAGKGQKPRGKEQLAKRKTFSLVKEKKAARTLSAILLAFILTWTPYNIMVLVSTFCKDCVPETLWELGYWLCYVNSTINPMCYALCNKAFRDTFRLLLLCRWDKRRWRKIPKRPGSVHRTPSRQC

[4] = target: T2, Muscarinic acetylcholine receptor M2 (Homo sapiens, UniProt P08172); assay: In vitro binding affinity towards muscarinic receptor in heart (M2) was determined
T2 sequence (P08172 whole entry): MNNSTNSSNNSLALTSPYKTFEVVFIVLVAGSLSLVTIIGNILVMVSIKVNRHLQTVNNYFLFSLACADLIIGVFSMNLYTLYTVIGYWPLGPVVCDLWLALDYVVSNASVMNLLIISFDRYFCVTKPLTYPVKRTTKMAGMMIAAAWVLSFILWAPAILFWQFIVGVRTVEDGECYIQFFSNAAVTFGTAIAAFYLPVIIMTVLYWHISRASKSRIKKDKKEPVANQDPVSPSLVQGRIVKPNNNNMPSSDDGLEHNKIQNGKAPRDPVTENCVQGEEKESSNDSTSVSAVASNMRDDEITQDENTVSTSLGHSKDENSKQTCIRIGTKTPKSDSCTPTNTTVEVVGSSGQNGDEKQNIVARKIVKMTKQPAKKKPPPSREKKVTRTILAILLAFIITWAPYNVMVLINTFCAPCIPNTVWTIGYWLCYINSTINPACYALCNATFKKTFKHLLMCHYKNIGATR

[5] = target: Muscarinic acetylcholine receptor (Cavia porcellus); assay: Binding affinity towards muscarinic receptor in urinary bladder was determined

Chain of Muscarinic acetylcholine receptor M3 (P20309 whole entry): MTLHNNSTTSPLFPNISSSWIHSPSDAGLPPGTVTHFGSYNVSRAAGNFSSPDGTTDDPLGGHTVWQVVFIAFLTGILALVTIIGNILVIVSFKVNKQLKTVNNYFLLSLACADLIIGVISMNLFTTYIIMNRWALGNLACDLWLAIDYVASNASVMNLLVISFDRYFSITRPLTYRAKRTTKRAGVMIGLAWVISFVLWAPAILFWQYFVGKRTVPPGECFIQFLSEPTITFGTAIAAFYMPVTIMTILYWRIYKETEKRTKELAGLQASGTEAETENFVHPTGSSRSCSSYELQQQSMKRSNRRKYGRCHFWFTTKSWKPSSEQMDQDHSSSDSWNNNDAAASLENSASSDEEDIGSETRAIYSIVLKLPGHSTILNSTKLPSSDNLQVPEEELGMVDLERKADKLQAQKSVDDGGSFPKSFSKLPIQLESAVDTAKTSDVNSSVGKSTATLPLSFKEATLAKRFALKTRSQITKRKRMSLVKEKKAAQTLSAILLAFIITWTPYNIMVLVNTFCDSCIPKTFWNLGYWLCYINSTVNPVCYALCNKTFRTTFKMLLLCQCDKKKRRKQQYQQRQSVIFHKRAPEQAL

Row | SMILES | Ki [1] | Ki [2] | Ki [3] | Ki [4] | Kb [5]
1 | O=Cc1ccc(C2=CN3CCC2CC3)s1 | 5700 nM | 4800 nM | 990 nM | 2600 nM | 
2 | c1ccc2c(c1)C(=C1CN3CCC1CC3)c1ccccc1-2 | 249 nM | 100 nM | 50 nM | 98 nM | 370 nM
3 | CC(=O)c1ccc(C2=CN3CCC2CC3)s1 | 2600 nM | 2600 nM | 480 nM | 1550 nM | 
4 | COc1ccccc1C(O)C1=CN2CCC1CC2 (configuration not stated) | 2500 nM | 1500 nM | 330 nM | 2200 nM | 450 nM
5 | OC1(C2=CN3CCC2CC3)c2ccccc2C=Cc2ccccc21 |  | > 200 nM | > 200 nM | > 200 nM | 

More lines, main results first:

Row | Ki [1] | Ki [2] | Ki [3] | Ki [4] | SMILES | Kb [5]
6 | > 5000 nM | > 5000 nM | > 5000 nM | > 5000 nM | OC1(C2=CN3CCC2CC3)c2ccccc2-c2ccccc21 | 
7 |  | 17000 nM | > 8000 nM | > 8000 nM | OC1(C2=CN3CCC2CC3)c2ccccc2Oc2ccccc21 | 
8 | 8000 nM | 6900 nM | 2040 nM | 2400 nM | OC1(C2=CN3CCC2CC3)c2ccccc2CCc2ccccc21 | 
